One series has as its target IKZF1 (Homo sapiens (Human), UniProt Q13422+Q96SW2). Kind of series: IKZF1 degradation by immunoblot in MV4-11 cells. Format: cell-based. The conditions noted are these: MV4-11 cells. The method, then: (§1) MV4-11 cells were seeded in 6-well plates (1×10^6 cells per well). After overnight incubation, the cells were treated with indicated concentrations for specific timepoints. […] After blocking the membrane with LI-COR TBS blocking buffer and incubation in primary antibody overnight, the corresponding protein signals were detected using IRDye secondary antibodies and Odyssey Imaging System. Image Studio Lite Ver 5.2 was used for blot quantification. […] IRDye® 800CW Goat anti-Mouse IgG Secondary Antibody and IRDye® 68ORD Goat anti-Rabbit IgG Secondary Antibody were used as secondary antibodies.
A general note: Immunoblotting shows a protein as a band on a membrane.

For the next series, the system named is MDCKII-MDR1 cells. Description: MDCKII-MDR1 permeability assay. The note with it: permeability in MDCK-MDR1 cells. Format: in vitro ADME. The method, then: High throughput […]1 permeability was performed in the Transwell® 0.4 μm polycarbonate membrane 96-well system with modified methods (Refs. 38-39). […]1 cells were maintained at 37° C. in a humidified incubator with an atmosphere of 5% CO2. The cells were cultured in 75 cm^2 flasks with Dulbecco's Modified Eagle's Medium (DMEM) containing 10% fetal bovine serum (FBS), 1% non-essential amino acids (NEAA), 100 units/ml of penicillin, and 100 μg/ml of streptomycin. The […]1 cells were seeded onto inserts at a density of 2×10^4 and 1×10^4 cells/insert separately. The medium in the wells was exchanged each other day, and the trans epithelial electrical resistance (TEER) value was measured using an epithelial volt-ohm meter (Millipore, Billerica, Massachusetts). […] For transport experiments, each cultured monolayer on the 96-well plate was washed twice with a transport buffer (HBSS/25 mM HEPES, pH 7.4). The permeability assay was initiated by the addition of each compound solution (10 μmol/L) into inserts (apical side, A) or receivers (basolateral side, B). The MDCKII-MDR1 cell monolayers were incubated for 1 hour at 37° C. Fractions were collected from receivers (if apical to basal permeability) or inserts (if basal to apical permeability), and concentrations were assessed by UPLC/MS (Waters; Milford, MA). All compounds were tested in triplicates. The A→B (or B→A) apparent permeability coefficients (Papp) of each compound were calculated using the equation, Papp=dQ/dt×1/AC0, where dQ/dt equals the flux of a drug across the monolayer, A equals the total insert well surface area, and C0 is the initial concentration of substrate in the donor compartment. The efflux ratio was determined by dividing the Papp in the B-A direction by the Papp in the A-B direction.

Another series addresses GSPT1 (Homo sapiens (Human), UniProt P15170+Q96SW2). Kind of series: GSPT1 degradation by immunoblot in MV4-11 cells. Format: cell-based. The conditions noted are these: MV4-11 cells, 4 hours, at 100 nM. The method, then: as §1
Series [1] in a line: Liver microsomes stability assay (human). Format: in vitro ADME. Here is the method: The liver microsome stability assay was carried as previously described (Refs. 40-41). NADPH regenerating agent solutions A and B and mouse liver microsomes (CD-1) were obtained from BD Gentest (Woburn, MA). Pooled human liver microsomes were purchased from XenoTech (Lenexa, KS). Ninety-six deep well plates were obtained from Midsci (St. Louis, MO). Ninety-six analytical plates were obtained from Corning Incorporated (Acton, MA). Sample preparation for microsomal stability was modified from Di's publications. A set of incubation times of 0, 15, 30, 60, 120, and 240 min were used. DMSO stock solutions of test compounds and verapamil (system control) were prepared at 10 mM concentration. Concentrated human or mouse liver microsomes (20 mg/mL protein concentration) and 0.5 M EDTA were diluted into 0.1 M potassium phosphate buffer (pH 7.4) and mixed well, followed by compounds solutions being spiked. This solution was mixed and 90 μL was transferred to 6 time points plates (each in triplicate wells). For the time 0 h plate, 3 fold (v:v) cold acetonitrile with internal standard (40 ng/ml warfarin) was added to each well, followed by addition of NADPH regenerating agent (mixing NADPH solutions A and B in PBS, pH7.4) and no incubation. […] The metabolic stability was evaluated via the half-life from least-squares fit of the multiple time points based on first-order kinetics.
Background: Liver microsomes are vesicles of endoplasmic reticulum, rich in cytochrome P450 enzymes.

A further series can be described thus: Aqueous solubility assay. Format: physicochemical. The note with it: aqueous solubility at pH = 7.4, triplicate. The method, then: Solubility assays were carried out on a Biomek FX lab automation workstation (Beckman Coulter, Inc., Fullerton, CA) using μSOL Evolution software (pION Inc., Woburn, MA). 10 μL of 10 mM compound stock (in DMSO) was added to 190 μL 1-propanol to make a reference stock plate. 5 μL from this reference stock plate were mixed with 70 μL 1-propanol and 75 μL citrate phosphate-buffered saline (PBS;isotonic) to make the reference plate, and the UV spectrum (250-500 nm) of the reference plate was read. 6 μL of 10 mM test compound stock was added to 594 μL buffer in a 96-well storage plate and mixed. The storage plate was sealed and incubated at RT for 18 h. The suspension was then filtered through a 96-well filter plate (pION Inc., Woburn, MA). 75 μL of filtrate was mixed with 75 μL 1-propanol to make the sample plate, and the UV spectrum of the sample plate was read. Calculations were carried out with μSOL Evolution software based on the area under the curve (AUC) of the UV spectrum of the sample and reference plates. All compounds were tested in triplicate.

Chain of GSPT1 (P15170 whole entry): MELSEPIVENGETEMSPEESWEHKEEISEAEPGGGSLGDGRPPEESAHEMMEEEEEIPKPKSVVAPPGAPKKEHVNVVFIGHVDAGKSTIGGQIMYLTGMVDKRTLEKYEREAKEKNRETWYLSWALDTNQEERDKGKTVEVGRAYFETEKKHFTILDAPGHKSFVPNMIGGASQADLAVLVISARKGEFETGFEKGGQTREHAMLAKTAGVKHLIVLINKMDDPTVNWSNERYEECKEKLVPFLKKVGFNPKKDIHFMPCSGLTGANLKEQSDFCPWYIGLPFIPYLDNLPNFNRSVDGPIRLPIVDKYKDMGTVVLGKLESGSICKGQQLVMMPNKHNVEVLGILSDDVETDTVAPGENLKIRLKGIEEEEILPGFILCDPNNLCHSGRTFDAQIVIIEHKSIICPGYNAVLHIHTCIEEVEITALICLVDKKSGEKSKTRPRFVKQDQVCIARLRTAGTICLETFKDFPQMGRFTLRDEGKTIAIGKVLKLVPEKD
Chain of GSPT1 (Q96SW2 whole entry): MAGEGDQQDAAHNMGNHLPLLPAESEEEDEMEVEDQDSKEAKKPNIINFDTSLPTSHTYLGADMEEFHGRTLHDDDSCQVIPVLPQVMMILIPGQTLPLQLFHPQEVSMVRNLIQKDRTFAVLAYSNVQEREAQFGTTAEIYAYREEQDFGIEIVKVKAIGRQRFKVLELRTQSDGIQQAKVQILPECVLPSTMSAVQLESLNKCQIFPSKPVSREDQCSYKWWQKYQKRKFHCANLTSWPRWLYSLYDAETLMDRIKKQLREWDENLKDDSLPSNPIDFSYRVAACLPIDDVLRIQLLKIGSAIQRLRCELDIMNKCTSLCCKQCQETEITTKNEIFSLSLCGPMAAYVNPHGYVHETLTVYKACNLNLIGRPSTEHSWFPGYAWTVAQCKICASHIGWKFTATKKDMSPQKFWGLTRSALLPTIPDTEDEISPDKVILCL
Chain of GSPT1 (Q16531 whole entry partner): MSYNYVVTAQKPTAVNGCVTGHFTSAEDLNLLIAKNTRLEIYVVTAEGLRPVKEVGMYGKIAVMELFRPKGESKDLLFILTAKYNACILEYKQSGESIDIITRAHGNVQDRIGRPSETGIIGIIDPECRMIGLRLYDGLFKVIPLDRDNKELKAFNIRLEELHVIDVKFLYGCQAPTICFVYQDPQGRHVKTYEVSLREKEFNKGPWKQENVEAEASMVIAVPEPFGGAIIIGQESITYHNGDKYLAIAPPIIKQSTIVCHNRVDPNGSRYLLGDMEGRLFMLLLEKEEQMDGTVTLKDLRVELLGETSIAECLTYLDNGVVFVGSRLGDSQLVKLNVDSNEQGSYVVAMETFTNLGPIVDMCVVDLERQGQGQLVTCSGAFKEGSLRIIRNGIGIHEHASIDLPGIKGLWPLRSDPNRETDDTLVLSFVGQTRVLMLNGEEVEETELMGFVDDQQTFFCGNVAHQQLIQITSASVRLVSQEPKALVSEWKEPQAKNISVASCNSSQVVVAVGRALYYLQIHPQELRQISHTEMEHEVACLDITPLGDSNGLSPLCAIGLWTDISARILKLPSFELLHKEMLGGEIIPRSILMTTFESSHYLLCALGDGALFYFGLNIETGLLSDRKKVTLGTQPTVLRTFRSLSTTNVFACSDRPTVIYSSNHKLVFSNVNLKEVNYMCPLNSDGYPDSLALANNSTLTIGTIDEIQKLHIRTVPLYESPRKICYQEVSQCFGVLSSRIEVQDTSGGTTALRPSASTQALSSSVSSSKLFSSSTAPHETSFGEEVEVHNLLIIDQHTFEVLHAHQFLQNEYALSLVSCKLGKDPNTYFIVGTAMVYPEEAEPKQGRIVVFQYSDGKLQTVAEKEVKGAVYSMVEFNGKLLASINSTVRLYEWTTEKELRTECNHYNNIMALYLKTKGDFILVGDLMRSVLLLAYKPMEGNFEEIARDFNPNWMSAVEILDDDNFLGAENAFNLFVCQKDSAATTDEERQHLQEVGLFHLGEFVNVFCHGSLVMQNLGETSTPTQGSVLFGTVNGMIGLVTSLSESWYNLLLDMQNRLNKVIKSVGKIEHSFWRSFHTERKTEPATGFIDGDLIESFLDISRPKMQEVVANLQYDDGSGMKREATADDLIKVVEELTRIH

Usually Papp stands for the rate of passage across a membrane or cell layer, normalised by area and donor concentration. The low end stands for slow passage, the high end for fast passage. As for `O=C1CCC(N2C(=O)c3ccc(NS(=O)(=O)c4ccccc4OC(F)(F)F)cc3C2=O)C(=O)N1` (stereo not shown) [Compound 1, N-(2-(2,6-dioxopiperidin-3-yl)-1,3-dioxoisoindolin-5-yl)-2-(trifluoromethoxy)benzenesulfonamide], on IKZF1 (4 hours, any concentration tested), the “IKZF1 degradation at 4 hours” value was “did not significantly degrade IKZF1”. On IKZF1 (treatment over 24 hours), the IKZF1 protein abundance entry is reported as “dose-dependent decrease”. In the series with MDCKII-MDR1 cells, this compound displayed a Papp of 2.3 ×10⁻⁶ cm/s. Besides, the GSPT1 protein degradation at GSPT1 was found to be 90%. Moreover, in series [1], the “intrinsic clearance Clint” value is on record as 4 mL/min/kg and the “liver microsomes t1/2” value stood at 5.7 h. Moreover, in the series “Aqueous solubility assay”, the Sol. amounted to 67 µM.

The values are drawn from patent US20240132463A1, “SUBSTITUTED N-(2-(2,6-DIOXOPIPERIDIN-3-YL)-1,3-DIOXOISOINDOLIN-5-YL)ARYLSULFONAMIDE ANALOGS AS MODULATORS OF CEREBLON PROTEIN” (ST. JUDE CHILDREN'S RESEARCH HOSPITAL, INC., priority 2020, published 2024).
